Assay results: patent EP3925667A1, “SELECTIVE TMPRSS2 INHIBITORS AND MEDICAL USE THEREOF” (priority 2020, dated 2021)
Where a name gives a salt, the structure may show the parent alone. Read-outs that look alike come from different tables or passages of the source.

Key:
[1] = target: T1, TMPRSS2 (Homo sapiens, UniProt O15393); assay: TMPRSS2 inhibition, IC50 (Table 1); assay type: biochemical; details: nonlinear regression, variable slope (four parameters)
Source text: Inhibitors were screened against TMPRSS2, thrombin and factor Xa.

[2] = target: T1, TMPRSS2; assay: TMPRSS2 inhibition, IC50 (Table 1); assay type: biochemical; details: nonlinear regression, variable slope (four parameters); remark: listed apart in the source
[3] = target: T2, Recomb. Human Thrombin (Homo sapiens, UniProt P00734); assay: Protease Thrombin inhibition assay, chromogenic substrate D-Phe-Homopro-Arg-pNA; assay type: biochemical; details: 30 minutes preincubation at room temperature, 100 µM reference substrate, absorption 405 nm, 25°C
T2 construct: purchased R&D systems 1473-SE-010
Experimental: (§1) Protease Thrombin inhibiton assay - Calculation of IC50 values
Protease: Recomb. Human Thrombin, Bought 30.01.2020; Art. 1473-SE-010; Company: R&D systems Reference substrate: D-Phe-Homopro-Arg-pNA; Company: Bachem; Art no.: 4008145.0050
• Reconstitute at 100 µg/ml (1428.57 nM) in sterile 50 mM HEPES and 640 mM NaCl • Diluted to a stock solution c = 0.04 µg/µl with TNC buffer
(§2) • Dilute and aliquote 2.1 mg of reference substrate to a concentration of c = 2000 µM in TNC. Dilute and aliquote further to a concentration of c = 200 µM in TNC buffer. Endconcentration in well: c = 100 µM.
(§3) • Inhibitor was diluted with pure DMSO to a concentration of 10 mM • This 10 mM stock solution was further diluted:
(§4) • 25 mM Tris, 150 mM NaCl, 5 mM CaCl2, 0,01% Triton X-100, pH = 8 (stored at 8°C)
(§5) • Total volume per well: 100µl • Temperature: 25°C • Kinetic interval: every 2 minutes • Absorption: 405 nm • Number of flashes: 25 • Shaking before measurememt: 3s • Shaking amplitude: 5 mm
(§6) • Per well: add 50 µl of Thrombin/TNC solution (c = 0.04 µg/µl), add 1 µl of inhibitor. • Incubate for 30 minutes at room temperature • After incubation, add […] of c = 200 µM reference substrate Endconcentration of substances per well: c = 100 µM of reference substrate, c = 0.002 µg of […] solution, 1% DMSO
(§7) • Graph pad prism 7 was used to analyze the data. The velocity (change of absorbance over time) was plotted against the concentration. A non linear regression was performed with the following equation: [inhibitor] vs. response - Variable slope (four parameters)

[4] = target: T3, Recomb. Human Coag. Factor Xa protein (Homo sapiens, UniProt P00742); assay: Protease Factor Xa inhibition assay, chromogenic substrate Bz-Ile-Glu-Gly-Arg-pNA; assay type: biochemical; details: 0.35 nM Factor Xa, 200 µM reference substrate, 30 minutes preincubation, absorption 405 nm, 25°C
T3 construct: purchased Bio-Techne GmbH 1063-SE-010
Experimental: (§8) Protease Factor Xa inhibiton assay - Calculation of IC50 values
(§9) Recomb. Human Coag. Factor Xa protein, CF: Bought 09.12.2020; Art. 1063-SE-010; Company: Bio-Techne GmbH
(§10) • Reconstitute at 100 µg/ml in sterile 25 mM MES, 150 mM NaCl, 5 mM CaCl2, pH6 • Diluted to a stock solution of 1000 nM with TNC buffer • This stock solution was further diluted with TNC buffer to a concentration of 35 nM and aliquoted. Stored at -20°C. Endconcentration in well: c = 0.35 nM
• Delivered: 5mg. Dilute and aliquote reference substrate to a concentration of 10 mM in pure DMSO. Endconcentration in well: c = 200 µM (= KM for Factor Xa)
as §3, §4, §5
(§11) • Per well: add 97 µl TNC buffer, add 1 µl of c = 35 nM solution of Factor Xa, add 1 µl of inhibitor • Incubate for 30 minutes at room temperature • After incubation, add 1 µl of c = 10 mM reference substrate Endconcentration of substances per well: c = 200 µM of reference substrate, c = 0.35 nM of Factor Xa solution, 2% DMSO
as §7, with “Graph” for “• Graph”, “parameters) Table 1. IC50 values of inventive inhibitors with respect to TMPRSS2, thrombin and Factor Xa” for “parameters)”

[5] = tested on: pseudotyped particle LV(Luc)-CoV2 in CaCo-2 cells; details: 2 h
[6] = tested on: SARS-CoV2 WT; details: 2 h
[7] = target: T2, Recomb. Human Thrombin; assay: Protease Thrombin inhibition assay, chromogenic substrate D-Phe-Homopro-Arg-pNA; assay type: biochemical
Experimental: as §1, §2, §3, §4, §6, §7

[8] = target: T3, Recomb. Human Coag. Factor Xa protein; assay: Protease Factor Xa inhibition assay, chromogenic substrate Bz-Ile-Glu-Gly-Arg-pNA; assay type: biochemical; details: 0.35 nM Factor Xa, 200 µM reference substrate, 30 minutes preincubation, absorption 405 nm, 25°C; remark: listed apart in the source
Experimental: as §8, §9, §10
• Delivered: 5mg. Dilute and aliquote reference substrate to a concentration of 10 mM in pure DMSO.
as §3, §4, §5, §11
as §7, with “Graph” for “• Graph”, “parameters) Table 1. IC50 values of inventive inhibitors with respect to TMPRSS2, thrombin and Factor Xa” for “parameters)”

[9] = tested on: pseudotyped particle LV(Luc)-CoV2 in CaCo-2 cells; assay: microbe, parasite or virus in culture; assay type: cell-based, SARS-CoV2; details: Severe acute respiratory syndrome coronavirus 2, 2 h incubation with inhibitor before transduction, luciferase activity at 48 h post transduction
[10] = tested on: SARS-CoV2 WT; assay: microbe, parasite or virus in culture; assay type: cell-based; details: Severe acute respiratory syndrome coronavirus 2

T1 sequence (O15393 whole entry): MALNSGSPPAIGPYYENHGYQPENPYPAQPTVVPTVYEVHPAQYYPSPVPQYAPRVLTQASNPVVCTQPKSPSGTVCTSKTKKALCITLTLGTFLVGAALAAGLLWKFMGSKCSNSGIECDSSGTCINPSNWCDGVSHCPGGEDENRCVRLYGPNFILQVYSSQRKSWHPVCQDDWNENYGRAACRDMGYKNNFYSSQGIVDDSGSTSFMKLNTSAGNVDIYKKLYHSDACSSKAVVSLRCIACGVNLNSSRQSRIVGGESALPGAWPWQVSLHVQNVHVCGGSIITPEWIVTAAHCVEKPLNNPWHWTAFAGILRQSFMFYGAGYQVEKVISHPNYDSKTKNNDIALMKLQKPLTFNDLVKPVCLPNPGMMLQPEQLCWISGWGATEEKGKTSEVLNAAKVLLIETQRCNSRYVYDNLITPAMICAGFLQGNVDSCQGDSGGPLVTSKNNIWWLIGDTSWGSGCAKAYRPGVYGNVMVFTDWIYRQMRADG
T3 sequence (P00742 235-488 limits assumed): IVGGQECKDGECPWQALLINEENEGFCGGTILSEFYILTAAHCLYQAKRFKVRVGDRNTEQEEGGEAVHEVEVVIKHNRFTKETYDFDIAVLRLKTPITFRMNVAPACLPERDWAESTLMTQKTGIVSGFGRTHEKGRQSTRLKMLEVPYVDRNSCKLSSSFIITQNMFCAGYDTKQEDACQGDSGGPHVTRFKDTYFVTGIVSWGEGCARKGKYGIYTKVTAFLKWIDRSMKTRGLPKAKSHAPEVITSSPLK
T3 sequence (P00742 41-179 partner limits assumed): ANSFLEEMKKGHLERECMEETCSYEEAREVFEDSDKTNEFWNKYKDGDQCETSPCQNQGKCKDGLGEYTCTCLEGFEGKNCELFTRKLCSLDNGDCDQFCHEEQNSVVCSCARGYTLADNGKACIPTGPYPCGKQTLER

SMILES | IC50 [2] | IC50 [3] | IC50 [4] | IC50 [5] | IC50 [6] | IC50 [8] | further results
[H]/N=C(/N)c1ccc(NCc2nc3cc(C(=O)N(CCC(=O)O)c4ccccn4)ccc3n2C)cc1 [Ref.2, Dabigatran] | – | – | – | – | – | – | IC50 [1]: > 100 µM
CC(=O)N[C@@H](C)C(=O)N[C@@H](CCC(=O)O)C(=O)N[C@@H](CCC(N)=O)C(=O)N[C@@H](CCCNC(=N)N)C(=O)c1nc2ccccc2s1 [Compound 2, Ac-AEQR-kbt] | 1.67 µM | > 100 µM | 0.991 µM | 0.47 µM | 19 µM | – | –
CC(=O)N[C@@H](CCC(N)=O)C(=O)N[C@@H](CCC(N)=O)C(=O)N[C@H](C(=O)N[C@@H](CCCNC(=N)N)C(=O)c1nc2ccccc2s1)C(C)C [Compound 4, Ac-QQVR-kbt] | 0.5 µM | > 10 µM | 1.5 µM | 2.05 µM | 58.5 µM | – | –
CC(=O)N[C@@H](CCCNC(=N)N)C(=O)N[C@@H](CCC(=O)O)C(=O)N[C@@H](CS)C(=O)N[C@@H](CCCNC(=N)N)C(=O)c1nc2ccccc2s1 [Compound 7, Ac-RECR-kbt] | 0.835 µM | > 100 µM | 0.611 µM | – | – | – | –
CC(=O)N[C@@H](CCC(=O)O)C(=O)N[C@@H](CCC(N)=O)C(=O)N1CCC[C@H]1C(=O)N[C@@H](CCCNC(=N)N)C(=O)c1nc2ccccc2s1 [Compound 5, Ac-EQPR-kbt] | 2.87 µM | > 100 µM | > 100 µM | 2.1 µM | – | – | –
CC(=O)N[C@@H](CC(N)=O)C(=O)N[C@@H](CCC(=O)O)C(=O)N[C@@H](CCC(N)=O)C(=O)N[C@@H](CCCNC(=N)N)C(=O)c1nc2ccccc2s1 [Compound 6, Ac-NEQR-kbt] | 1.19 µM | > 100 µM | 8.14 µM | 1.4 µM | 34.2 µM | – | –
CC(=O)NCC(=O)N[C@@H](CCC(N)=O)C(=O)N[C@@H](CCCNC(=N)N)C(=O)N[C@@H](CCCNC(=N)N)C(=O)c1nc2ccccc2s1 [Compound 3, Ac-GQRR-kbt] | 0.332 µM | > 100 µM | 22 µM | 1.3 µM | 20.1 µM | – | –
CC(=O)N[C@@H](CCCCN)C(=O)N[C@@H](CCC(N)=O)C(=O)N[C@@H](CC(C)C)C(=O)N[C@@H](CCCNC(=N)N)C(=O)c1nc2ccccc2s1 [Ref.1, Ac-KQLR-kbt, reference compound] | 3.43 µM | > 100 µM | 0.338 µM | 3.01 µM | 15.6 µM | – | –
CC(=O)N[C@@H](CC(C)C)C(=O)N[C@@H](CC(C)C)C(=O)N[C@H](C=O)CCCNC(=N)N [Ref.3, Leupeptin] | – | – | – | – | – | > 13.9 µM | IC50 [1]: > 27.6 µM; IC50 [7]: > 100 µM; IC50 [9]: 36.8 µM
N=C(N)NCCC[C@H](NC(=O)[C@@H]1CCCN1C(=O)[C@H](N)Cc1ccccc1)C(=O)CCl [Ref.6, PPack] | – | – | – | – | – | 0.0745 µM | IC50 [1]: > 100 µM; IC50 [7]: 0.000268 µM
N=C(N)c1ccccc1 [Ref.4, Benzamidine] | – | – | – | – | – | > 100 µM | IC50 [1]: > 100 µM; IC50 [9]: > 1000 µM
CC(=O)N[C@@H](CCCNC(=N)N)C(=O)N[C@@H](CCC(N)=O)C(=O)N[C@@H](CC(C)C)C(=O)N[C@@H](CCCNC(=N)N)C(=O)c1nc2ccccc2s1 [Compound 1, Ac-RQLR-kbt] | 1.26 µM | > 100 µM | 0.0471 µM | 0.803 µM | 11.1 µM | – | –
N=C(N)Nc1ccc(C(=O)Oc2ccc(CC(=O)O)cc2)cc1 [Ref.8, FOY 251] | – | – | – | – | – | 21.5 µM | IC50 [7]: > 100 µM
CN(C)C(=O)COC(=O)Cc1ccc(OC(=O)c2ccc(NC(=N)N)cc2)cc1 [Ref.5, Camostat mesylate] | – | – | – | – | – | 5.3 µM | IC50 [9]: 0.505 µM; IC50 [10]: 32.4 µM
CC[C@H](C)[C@H](NC(=O)[C@H](C)NC(=O)[C@H](CCC(=O)O)NC(=O)[C@H](CCC(=O)O)NC(=O)[C@H](CC(C)C)NC(=O)[C@H](CCCCN)NC(=O)[C@H](CCCCN)NC(=O)[C@H](CCSC)NC(=O)[C@H](CCC(=O)O)NC(=O)[C@H](Cc1ccc(O)cc1)NC(=O)[C@H](CCC(=O)O)NC(=O)[C@H](CC(C)C)NC(=O)[C@H](CC(=O)O)NC(=O)[C@H](CC(C)C)NC(=O)[C@H](Cc1ccccc1)NC(=O)[C@@H](NC(=O)[C@@H](NC(=O)[C@H](CC(N)=O)NC(=O)[C@@H](NC(=O)[C@H](CCC(N)=O)NC(=O)[C@H](CC(=O)O)NC(=O)[C@H](CC(C)C)NC(=O)[C@@H](N)CO)[C@@H](C)CC)C(C)C)[C@@H](C)O)C(=O)N[C@@H](CCCCN)C(=O)N[C@@H](CCCCN)C(=O)N[C@@H](CC(C)C)C(=O)N[C@@H](CCC(=O)O)C(=O)N[C@@H](CCC(=O)O)C(=O)N[C@@H](CO)C(=O)N[C@@H](Cc1ccc(O)cc1)C(=O)N[C@H](C(=O)N[C@@H](CC(=O)O)C(=O)N[C@@H](CC(C)C)C(=O)N[C@@H](CCCCN)C(=O)N[C@@H](CCC(=O)O)C(=O)N[C@@H](CC(C)C)C(=O)O)[C@@H](C)CC [Ref.9, EK1, reference compound] | – | – | – | 0.228 µM | – | – | –
N=C(N)c1ccc(CNC(=O)[C@@H]2CCN2C(=O)[C@H](NCC(=O)O)C2CCCCC2)cc1 [Ref.7, Melagatran] | – | – | – | – | – | 0.216 µM | –
